Here are results for 6 compounds from EP4603105A1, “PHARMACEUTICAL COMPOSITION CONTAINING CYCLIC COMPOUND HAVING SELECTIVE KRAS INHIBITORY EFFECT AGAINST HRAS AND NRAS” (CHUGAI SEIYAKU KABUSHIKI KAISHA, priority 2022, dated 2024).

Molecules are shown by their SMILES. Like-named read-outs stand apart in the source and are kept apart here.

The target in experiment [1] is GDP-bound KRAS wild-type protein (Homo sapiens, UniProt P01116). Kind of experiment: Binding to KRAS by surface plasmon resonance (SPR), dissociation constant KD. An outline of the steps:
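Read-out is KD from 1:1 fitting of single-cycle kinetics sensorgrams, blank-cycle and reference-surface corrected. Proteins were GDP-loaded, biotinylated Avi-fusions freshly captured each cycle at roughly 100–300 RU. Runs were at 30°C in HBS pH 7.4 with MgCl2, GDP and 4% DMSO.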

In experiment [2] the test system is human lung cancer strain NCI-H441. The experiment is described as follows: NCI-H441 cell proliferation inhibitory activity (CellTiter-Glo, 4 days). The experiment is classed as cell-based. The conditions noted are these: read-out: NCl-H441 IC50. In a few lines: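 Readout: […] after the ATP-based reagent. Compound: serial dilutions in dimethyl sulfoxide.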

Experiment [3] concerns the target HRAS wild-type protein (Homo sapiens, UniProt P01112). The experiment is described as follows: Binding to HRAS by surface plasmon resonance (SPR), KD and KD ratio to KRAS. An outline of the steps:
(§1)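 GDP-loaded biotinylated Avi-tag RAS proteins (E. coli-expressed) captured on a Biotin CAPture chip at ~100–300 RU; single-cycle kinetics at 30°C, 100 µL/min, 75 s injections of rising compound concentrations. HBS pH 7.4 running buffer with 1 mM DTT, 10 mM MgCl2, 10 µM GDP, 4% DMSO. KD from 1:1 binding fit.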

The target of experiment [4] is GDP-bound NRAS wild-type protein (Homo sapiens, UniProt P01111). Kind of experiment: Binding to NRAS by surface plasmon resonance (SPR), KD and KD ratio to KRAS. An outline of the steps: as §1
Setting [5] is: Single Cycle Kinetics, 1:1 binding model.
Where [6] appears, read: 50% proliferation inhibitory concentration, four days.
Setting [7] is: ratio of KD with respect to HRAS wild-type protein to KD with respect to KRAS.
Setting [8] is: ratio of KD with respect to GDP-bound NRAS wild-type protein to KD with respect to KRAS.
Where [9] appears, read: ratio of KD for HRAS wild-type protein to KD for KRAS.
[10] abbreviates: ratio of KD for GDP-bound NRAS wild-type protein to KD for KRAS.

GDP-bound NRAS wild-type protein, sequence (P01111 whole entry): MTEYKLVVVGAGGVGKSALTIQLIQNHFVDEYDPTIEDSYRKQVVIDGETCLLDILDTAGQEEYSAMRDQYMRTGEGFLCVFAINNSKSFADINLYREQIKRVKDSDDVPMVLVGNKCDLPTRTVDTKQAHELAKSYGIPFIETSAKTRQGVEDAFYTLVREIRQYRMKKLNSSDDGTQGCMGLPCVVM
HRAS wild-type protein, sequence (P01112 whole entry): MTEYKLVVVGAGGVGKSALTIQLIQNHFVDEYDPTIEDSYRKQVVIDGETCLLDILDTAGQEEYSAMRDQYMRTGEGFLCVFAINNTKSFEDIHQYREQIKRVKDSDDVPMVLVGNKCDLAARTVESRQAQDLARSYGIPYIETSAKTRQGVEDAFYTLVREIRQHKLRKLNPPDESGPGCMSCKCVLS
GDP-bound KRAS wild-type protein, sequence (P01116 1-188 isoform P01116-2): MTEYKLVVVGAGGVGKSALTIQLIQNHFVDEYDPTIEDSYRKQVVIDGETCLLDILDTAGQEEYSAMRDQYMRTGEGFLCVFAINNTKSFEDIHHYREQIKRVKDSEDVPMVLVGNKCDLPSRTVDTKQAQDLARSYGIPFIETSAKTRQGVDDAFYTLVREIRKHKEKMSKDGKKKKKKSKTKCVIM

In experiment [1] (setting [5]), `CCO[C@@H]1C[C@H]2C(=O)NC3(CCCC3)C(=O)N(C)[C@@H](C3CCCC3)C(=O)N(C)[C@H](C(=O)N3CCOCC3)CC(=O)N(C)[C@@H](CC)C(=O)N[C@@H]([C@@H](C)CC)C(=O)N(C)CC(=O)N(C)[C@H]3C[C@@H](C)[C@@H](C)CN(C3=O)[C@@H](Cc3ccc(C(F)(F)F)cc3)C(=O)N(C)CC(=O)N[C@@H](CCc3cc(F)c(C(F)(F)F)c(F)c3)C(=O)N2C1` [PP1353] showed a dissociation constant Kd of 0.1 nM. In addition, the IC50 in experiment [2] (setting [6]) came out at 3.7 nM. In experiment [3] (setting [7]), the “HRAS /KRAS” value was “B (a compound having 3 or more and less than 10 is denoted as B)”. Besides, the “NRAS /KRAS” value in experiment [4] (setting [8]) was “A (a compound having 10 or more and less than 20 is denoted as A)”.

`CCO[C@@H]1C[C@H]2C(=O)NC3(CC(C)(C)C3)C(=O)N(C)[C@@H](C3CCCC3)C(=O)N(C)[C@H](C(=O)N(C)CC)CC(=O)N(C)[C@@H]([C@@H](C)OC)C(=O)N[C@@H]([C@@H](C)CC)C(=O)N(C)CC(=O)N(C)[C@H]3C/C=C\CCN(C3=O)[C@@H](Cc3ccc(C)cc3)C(=O)N(C)CC(=O)N[C@@H](CCc3ccc(C(F)(F)F)c(OC)c3)C(=O)N2C1` [PP3176] yielded a Kd in experiment [1] (Single Cycle Kinetics) of 0.09 nM. The IC50 in experiment [2] (NCI-H441 cells, 4 days) worked out at 13.6 nM. Further, in experiment [3] (setting [9]), the “HRAS /KRAS” value was “A (a compound having 10 or more and less than 20 is denoted as A)”. In addition, the “NRAS /KRAS” value in experiment [4] (setting [10]) is “A (a compound having 10 or more and less than 20 is denoted as A)”.

On to `CCO[C@@H]1C[C@H]2C(=O)NC3(CCC3)C(=O)N(C)[C@@H](C3CCCC3)C(=O)N(C)[C@H](C(=O)N(C)C)CC(=O)N(C)[C@@H](Cc3ccc(C#N)cc3)C(=O)N[C@@H]([C@@H](C)CC)C(=O)N(C)CC(=O)N(C)[C@H]3CCCCCN(C3=O)[C@@H](Cc3ccc(F)cc3)C(=O)N(C)CC(=O)N[C@@H](CCc3cc(F)c(C(F)(F)F)c(F)c3)C(=O)N2C1` [PP1157], for which the Kd in experiment [1] (setting [5]) was 0.061 nM. Further, in experiment [2] (setting [6]), the IC50 is 30.3 nM. In addition, the “HRAS /KRAS” value in experiment [3] (setting [7]) is “B (a compound having 3 or more and less than 10 is denoted as B)”. Moreover, the “NRAS /KRAS” value in experiment [4] (setting [8]) is “B (a compound having 3 or more and less than 10 is denoted as B)”.

In turn, `C#CCN1CC(=O)N(C)[C@H]2C/C=C\CCN(C2=O)[C@@H](Cc2ccc(C)cc2)C(=O)N(C)CC(=O)N[C@@H](CCc2ccc(C(F)(F)F)c(OC)c2)C(=O)N2C[C@H](OCC)C[C@H]2C(=O)NC2(CC(C)(C)C2)C(=O)N(C)[C@@H](C2CCCC2)C(=O)N(C)[C@H](C(=O)N(C)C)CC(=O)N(C)[C@@H](CCC)C(=O)N[C@@H](CC(C)C)C1=O` [PP2514] registered an equilibrium dissociation constant (Kd) in experiment [1] (1:1 binding model) of 2.4 nM. Moreover, in experiment [2] (NCI-H441 cells, 4 days), the half-inhibitory concentration (IC50) is 86.8 nM. Also, the “HRAS /KRAS” value in experiment [3] (setting [9]) was “B (a compound having 3 or more and less than 10 is denoted as B)”. The “NRAS /KRAS” value in experiment [4] (setting [10]) is “A (a compound having 10 or more and less than 20 is denoted as A)”.

With `CCO[C@@H]1C[C@H]2C(=O)NC3(CCC3)C(=O)N(C)[C@@H](C3CCCC3)C(=O)N(C)[C@H](C(=O)N3CCCC3)CC(=O)N(C)[C@@H](CC(F)F)C(=O)N[C@@H]([C@@H](C)CC)C(=O)N(C)CC(=O)N(C)[C@H]3C/C=C\CCN(C3=O)[C@@H](Cc3ccc(C(F)(F)F)cc3)C(=O)N(C)CC(=O)N[C@@H](CCc3cc(F)c(C(F)(F)F)c(F)c3)C(=O)N2C1` [PP1298], binding in experiment [1] (setting [5]) was put at a Kd of 0.13 nM. Further, the half-maximal inhibitory concentration (IC50) in experiment [2] (setting [6]) was determined as 11.4 nM. Also, the “HRAS /KRAS” value in experiment [3] (setting [7]) is “A (a compound having 10 or more and less than 20 is denoted as A)”. Moreover, the “NRAS /KRAS” value in experiment [4] (setting [8]) was “AA (a compound having 20 or more is denoted as AA)”.

`CCCO[C@H](C)[C@@H]1NC(=O)[C@H](COCC)N(C)C(=O)C[C@@H](C(=O)N(C)CC)N(C)C(=O)[C@H](C2CCCC2)N(C)C(=O)C2(CC(C)(C)C2)NC(=O)[C@@H]2C[C@H](C)CN2C(=O)[C@H](CCc2cc(F)c(C(F)(F)F)c(F)c2)NC(=O)CN(C)C(=O)[C@H](Cc2ccc(C)cc2)N2CC/C=C\C[C@@H](C2=O)N(C)C(=O)CN(C)C1=O` [PP2426]: in experiment [1] (1:1 binding model), the Kd worked out at 0.31 nM. Moreover, the IC50 in experiment [2] (NCI-H441 cells, 4 days) was 48 nM. Also, the “HRAS /KRAS” value in experiment [3] (setting [9]) was “A (a compound having 10 or more and less than 20 is denoted as A)”. Also, in experiment [4] (setting [10]), the “NRAS /KRAS” value is listed as “AA (a compound having 20 or more is denoted as AA)”.
